≈ marks a conversion by molar mass, not a printed value. Like-named read-outs stand apart in the source and are kept apart here.
Experiments:
[1] = system: α-2 over α-1 adrenergic receptors; details: binding affinity for α-2 over α-1 receptors; cited from earlier work
[2] = system: ocular hypertensive and normotensive eyes of patients; details: cited from earlier work; for equivalent reduction in normotensive human eyes: prior art formulations
normotensive eyes = details: under specific and very limited formulation conditions
one eye of an individual = assay: Example 3: cosmetic appearance (redness, whiteness) of the treated eye; format: in vivo, human; details: for Eye White Shade: baseline 1; for Redness: baseline 1.5
normotensive rabbits = details: cited from earlier work; for contralateral (nontreated eye) IOP reduction compared to the treated eye / time of peak effect: normotensive rabbits; for time of peak effect: dexmedetomidine 0.05%, brimonidine tartrate 0.10%
[3] = system: normotensive (<21 mm Hg) human subject; details: after instillation
Protocol: Various formulations of α-2 agonists were unilaterally administered to a normotensive (<21 mm Hg) human subject. The subject first underwent baseline IOP testing using standard applanation tonometry via slit lamp. After fluorescein instillation, the drug was instilled as a morning dose at between about 7:00 and 9:00 AM. […] Follow up IOP checks were designed to be about 4 hours after initial instillation, where instillation consisted of 1-2 drops.

[4] = conventional brimonidine formulations

Cc1cc(C(C)(C)C)c(O)c(C)c1CC1=NCCN1 [Oxymetazoline]
α2:α1 [1]: 50

Clc1cccc(Cl)c1N=C1NCCN1 [Clonidine]
α2:α1 [1]: 200

Nc1cc(Cl)c(N=C2NCCN2)c(Cl)c1 [Apraclondine]
α2:α1 [1]: 150

Cc1cccc([C@H](C)c2cnc[nH]2)c1C [Dexmedetomidine]
equivalent reduction in normotensive human eyes [2]: about 20%
more effective than brimonidine by (IOP reduction vs. time) (normotensive eyes): about 200%
start of decrease in hyperemia and increase in whiteness (one eye of an individual; after the application): about 2 minutes
time to maximum whiteness (one eye of an individual; after the application): about 10 minutes
Eye White Shade (one eye of an individual; dexmedetomidine 0.010%, 4 (whitest)-1 off-white-gray/yellow): 1
Redness (one eye of an individual; dexmedetomidine 0.010%, scale 0 (none)-4 (reddest + chemosis)): 1.25
Redness (one eye of an individual; dexmedetomidine 0.022%, scale 0-4): 1.25
Eye White Shade (one eye of an individual; dexmedetomidine 0.022%, scale 4-1): 1.25
Redness (one eye of an individual; dexmedetomidine 0.050%, scale 0-4): 1.0
Eye White Shade (one eye of an individual; dexmedetomidine 0.050%, scale 4-1): 1.5
Redness (one eye of an individual; dexmedetomidine 0.10%, scale 0-4): 0.75
Eye White Shade (one eye of an individual; dexmedetomidine 0.10%, scale 4-1): 1.75
Redness (one eye of an individual; dexmedetomidine […], scale 0-4): 1.0
Eye White Shade (one eye of an individual; dexmedetomidine […], scale 4-1): 1.5
total duration of the effect (reduced hyperemia, increase in whiteness) (one eye of an individual; in vivo): 3 to 5 h
pressure reduction in the nontreated (contralateral) eye relative to the treated eye (normotensive rabbits; 0.02% in normotensive rabbits, U.S. Pat. No. 5,304,569): 100%
pressure reduction (normotensive rabbits; 0.05% in normotensive rabbits, Vartiainen et al): 4.75 mm Hg
contralateral (nontreated eye) IOP reduction compared to the treated eye (normotensive rabbits): about 100%
time of peak effect (normotensive rabbits): about 2 hours
α2:α1 [1]: 1620
max soluble concentration (pH 6): 0.195%
solubility (pH 6): 1953 µg/mL (≈ 9750 µM)
max soluble concentration (pH 6.4): 0.060%
max soluble concentration (pH 7): 0.023%
solubility (pH 7): 224 µg/mL (≈ 1120 µM)
max soluble concentration (pH 7.4): 0.015%
max soluble concentration (pH 8): 0.013%
solubility (pH 8): 134 µg/mL (≈ 669 µM)

CC(Oc1c(Cl)cccc1Cl)C1=NCCN1 (stereo not shown) [Lofexidine]
α2:α1 [1]: <300

brimonidine tartrate
peak IOP reduction (normotensive rabbits; 0.10% solution in normotensive rabbits): about 6.2 mm Hg

Cc1cccc(C)c1N=C1NCCCS1 [Xylazine]
α2:α1 [1]: 160

Brc1c(NC2=NCCN2)ccc2nccnc12 [Brimonidine]
substantial local side effects ([2]; conjunctival hyperemia, blepharitis, allergy, edema, follicles, foreign body sensation, burning, blurring): 10-25 % of users
time of peak IOP reduction effect after instillation ([2]; conventional brimonidine formulations, normotensive eyes): 2 to 3 h
duration of IOP reduction effect of a single dose [2, 4]: ≤ 12 h
peak IOP reduction effect in normotensive eyes [2, 4]: 15-18%
peak IOP reduction in normotensive eyes (less than 21 mm Hg) ([2]; human, in vivo): 6-18%
peak IOP reduction in ocular hypertensive eyes ([2]; human, in vivo): 20-25%
peak effect within (time of instillation) ([2]; human, in vivo): 2 to 3 h
topical lid and conjunctival allergy, dryness, and redness ([2]; human, in vivo): over 10 % of patients
users complaining of dryness ([2]; human, in vivo): more than 10%
rebound redness ([2]; long term use): 20-25%
equivalent reduction in normotensive human eyes [2]: about 20%
duration of effect ([2]; typically): less than 12 hours
IOP reduction peaking at (time) [3]: 2 h
contralateral (nontreated eye) IOP reduction compared to the treated eye (normotensive rabbits): about 10%
time of peak effect (normotensive rabbits): about 3 hours

— US8445526B2, “Compositions and methods for treatment of glaucoma” (Glaucoma & Nasal Therapies LLC, priority 2011, dated 2013)
